Results from patent US20160175306A1, “COMBINATION OF A IMIDAZOPYRIDAZINE DERIVATIVE AND A MITOTIC AGENT FOR THE TREATMENT OF CANCER” (BAYER PHARMA AKTIENGESELLSCHAFT, priority 2013, published 2016).
Like-named read-outs stand apart in the source and are kept apart here. Marks after values point to notes of the source that are not given here.

What was measured:
rat hepatocytes = assay: In vitro metabolic stability in rat hepatocytes; format: in vitro ADME; conditions: 1 μM test compound, calculated from half-life
Method: Investigation of In Vitro Metabolic Stability in Rat Hepatocytes (Including Calculation of Hepatic In Vivo Blood Clearance (CL))
Hepatocytes from Han Wistar rats were isolated via a 2-step perfusion method. After perfusion, the liver was carefully removed from the rat: the liver capsule was opened and the hepatocytes were gently shaken out into a Petri dish with ice-cold WME. The resulting cell suspension was filtered through sterile gaze in 50 ml falcon tubes and centrifuged at 50×g for 3 min at room temperature.
The cell pellet was resuspended in 30 ml WME and centrifuged through a Percoll® gradient for 2 times at 100×g. The hepatocytes were washed again with Williams' medium E (WME) and resuspended in medium containing 5% FCS. Cell viability was determined by trypan blue exclusion.
For the metabolic stability assay liver cells were distributed in WME containing 5% FCS to glass vials at a density of 1.0×10^6 vital cells/m. The test compound was added to a final concentration of 1 μM. During incubation, the hepatocyte suspensions were continuously shaken and aliquots were taken at 2, 8, 16, 30, 45 and 90 min, to which equal volumes of cold methanol were immediately added. Samples were frozen at −20° C. over night, after subsequently centrifuged for 15 minutes at 3000 rpm and the supernatant was analyzed with an Agilent 1200 HPLC-system with LCMS/MS detection.
The half-life of a test compound was determined from the concentration-time plot. From the half-life the intrinsic clearances were calculated. Together with the additional parameters liver blood flow, amount of liver cells in vivo and in vitro. The hepatic in vivo blood clearance (CL) and the maximal oral bioavailability (Fmax) was calculated. The following parameter values were used: Liver blood flow—4.2 L/h/kg rat; specific liver weight—32 g/kg rat body weight; liver cells in vivo—1.1×10^8 cells/g liver, liver cells in vitro—0.5×10^6/ml.

human kinase Mps-1 = biological target: T1, human kinase Mps-1 (Homo sapiens, UniProt P33981); assay: Mps-1 Kinase Assay (TR-FRET); format: biochemical; conditions: 10 μM ATP
T1 construct: N-terminally GST-tagged human full length recombinant Mps-1 kinase; purchased Invitrogen, Karslruhe, Germany PV4071
T1 sequence (P33981 1-857): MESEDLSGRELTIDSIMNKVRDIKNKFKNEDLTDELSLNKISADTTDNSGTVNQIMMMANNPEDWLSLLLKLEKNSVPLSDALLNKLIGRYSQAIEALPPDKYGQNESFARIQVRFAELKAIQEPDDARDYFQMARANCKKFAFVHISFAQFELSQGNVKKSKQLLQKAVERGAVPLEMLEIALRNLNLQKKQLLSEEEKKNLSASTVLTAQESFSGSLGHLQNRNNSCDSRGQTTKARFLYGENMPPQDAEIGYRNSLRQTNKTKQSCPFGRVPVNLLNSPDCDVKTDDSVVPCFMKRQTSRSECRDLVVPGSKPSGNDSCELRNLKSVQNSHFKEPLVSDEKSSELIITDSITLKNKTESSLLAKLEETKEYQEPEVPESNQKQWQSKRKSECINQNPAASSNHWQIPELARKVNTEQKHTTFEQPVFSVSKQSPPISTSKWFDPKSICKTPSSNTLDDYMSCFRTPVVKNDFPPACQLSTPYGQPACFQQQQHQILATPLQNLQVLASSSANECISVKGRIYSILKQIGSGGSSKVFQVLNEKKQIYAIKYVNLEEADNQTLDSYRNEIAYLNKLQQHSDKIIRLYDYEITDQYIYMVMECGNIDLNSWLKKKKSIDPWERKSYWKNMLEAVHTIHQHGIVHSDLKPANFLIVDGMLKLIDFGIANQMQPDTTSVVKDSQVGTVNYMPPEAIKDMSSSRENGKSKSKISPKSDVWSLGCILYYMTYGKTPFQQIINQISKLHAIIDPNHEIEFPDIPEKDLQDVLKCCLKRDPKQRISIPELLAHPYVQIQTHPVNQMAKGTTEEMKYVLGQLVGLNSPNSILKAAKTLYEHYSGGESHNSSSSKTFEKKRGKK
Method: The human kinase Mps-1 phosphorylates a biotinylated substrate peptide. Detection of the phosphorylated product is achieved by time-resolved fluorescence resonance energy transfer (TR-FRET) from Europium-labelled anti-phospho-Serine/Threonine antibody as donor to streptavidin Labelled with cross-linked allophycocyanin (SA-XLent) as acceptor. Compounds are tested for their inhibition of the kinase activity.
N-terminally GST-tagged human full length recombinant Mps-1 kinase (purchased from Invitrogen, Karslruhe, Germany, cat. no PV4071) was used. As substrate for the kinase reaction a biotinylated peptide of the amino-acid sequence […] (C-terminus in amide form, purchased from Biosynthan GmbH, Berlin) was used.
The concentration of Mps-1 in the assay was adjusted to the activity of the enzyme lot and was chosen appropriate to have the assay in the linear range, typical enzyme concentrations were in the range of about 1 nM (final conc. in the 5 μl assay volume).
The resulting mixture was incubated 1 h at 22° C. to allow the binding of the phosphorylated peptide to the anti-phospho(Ser/Thr)-Europium-antibody. Subsequently the amount of phosphorylated substrate was evaluated by measurement of the resonance energy transfer from the Europium-labelled anti-phospho(Ser/Thr) antibody to the Streptavidin-XLent.

[1] = system: NCI-H1299 human NSCLC xenograft model; conditions: for T/C area: relative tumor area at control dosing stop
Source text: In Vivo Anti-Tumor Efficacy of Mps-1 Kinase Inhibitors of the Present Invention in Combination with Paclitaxel in NCI-H1299 Human NSCLC Model in Nude Mice
The effect of combination treatment of an Mps-1 kinase inhibitor of the present invention and paclitaxel was studied in the NCI-H1299 taxane intrinsically resistant human lung carcinoma (NSCLC) xenograft model in nude mice. […] Substances were formulated in optimal vehicles to achieve solutions. Animal body weight and tumor size were determined three times weekly. Treatment for all groups started at a tumor size of 30 mm^2, at day 8 after tumor cell inoculation. […] At the end of the study after one final treatment plasma and tumors were sampled for PK analysis and final tumor weight was determined.

[2] = system: A2780cis human ovarian cancer xenograft model
Method: In Vivo Anti-Tumor Efficacy of Mps-1 Kinase Inhibitors of the Present Invention in Combination with Paclitaxel in A2780cis Human Ovarian Cancer Model in Nude Mice
The effect of combination treatment of an Mps-1 kinase inhibitor of the present invention and paclitaxel was studied in the adaptive cisplatin-resistant and paclitaxel intrinsically resistant A2780cis xenograft model. […] Animal body weight and tumor size were determined three times weekly. Treatment for all groups started at a tumor size of 29 mm^2, at day 6 after tumor cell inoculation. […] At the end of the study after one final treatment plasma and tumors were sampled for PK analysis and final tumor weight was determined.

[3] = Paclitaxel 20/15 (d19) mg/kg QD 2on/6off i.v.

Structure (SMILES)	Fmax (maximal oral bioavailability) (rat hepatocytes) [%]	IC50 (human kinase Mps-1) [nM]	further results
CC(=O)O[C@H]1C(=O)[C@@]2(C)[C@H]([C@H](OC(=O)c3ccccc3)[C@]3(O)C[C@H](OC(=O)[C@H](O)[C@@H](NC(=O)c4ccccc4)c4ccccc4)C(C)=C1C3(C)C)[C@]1(OC(C)=O)CO[C@@H]1C[C@@H]2O [Paclitaxel, (2α,4α,5β,7β,10β,13α)-4,10-bis(acetyloxy)-13-{[(2R,3S)-3-(benzoylamino)-2-hydroxy-3-phenylpropanoyl]oxy}-1,7-dihydroxy-9-oxo-5,20-epoxytax-11-en-2-yl benzoate, reference compound]	–	–	Fatal Tox [1, 3]: 0/10; T/C area [1, 3]: 0.13^#; T/C area ([1]; Paclitaxel 20/15 (d19) mg/kg QD 2on/6off i.v., listed as paclitaxel): 0.13; Max. Body weight loss ([1]; mouse, in vivo, iv): −1.9%; Fatal Tox [2, 3]: 0/10; T/C area ([2]; Paclitaxel 20/15 (d19) mg/kg QD 2on/6off i.v., relative tumor area at control dosing stop): 0.06^#; Max. Body weight loss ([2]; mouse, in vivo, iv): −0.7%
Cc1cc(-c2cnc3c(NCCC(F)(F)F)cc(C(F)(F)c4cccc(F)c4F)nn23)ccc1C(=O)NC1CC1 [Compound A18, N-Cyclopropyl-4-{6-[(2,3-difluorophenyl)(difluoro)methyl]-8-[(3,3,3-trifluoropropyl)amino]imidazo[1,2-b]pyridazin-3-yl}-2-methylbenzamide]	76	1.5	–
Cc1cc(-c2cnc3c(NCCC(F)(F)F)cc(C(=O)c4cccc(F)c4F)nn23)ccc1C(=O)NC1CC1 [Compound A14, N-Cyclopropyl-4-{6-(2,3-difluorobenzoyl)-8-[(3,3,3-trifluoropropyl)amino]imidazo[1,2-b]pyridazin-3-yl}-2-methylbenzamide]	51	0.6	–
COc1ccc(C(=O)c2cc(NCCC(F)(F)F)c3ncc(-c4ccc(C(=O)NC5CC5)c(C)c4)n3n2)cc1 [Compound A9, N-Cyclopropyl-4-{6-(4-methoxybenzoyl)-8-[(3,3,3-trifluoropropyl)amino]imidazo[1,2-b]pyridazin-3-yl}-2-methylbenzamide]	71	1.2	–
C=C(c1cccc(OC)c1)c1cc(NCCC(F)(F)F)c2ncc(-c3ccc(C(=O)NC4CC4)c(C)c3)n2n1 [Compound A8, N-Cyclopropyl-4-{6-[1-(3-methoxyphenyl)vinyl]-8-[(3,3,3-trifluoropropyl)amino]imidazo[1,2-b]pyridazin-3-yl}-2-methylbenzamide]	57	0.8	–
Cc1cc(-c2cnc3c(NCCC(F)(F)F)cc(C(F)c4cccc(F)c4)nn23)ccc1C(=O)NC1CC1 (racemic) [Compound A5, (RS)—N-Cyclopropyl-4-{6-[fluoro(3-fluorophenyl)methyl]-8-[(3,3,3-trifluoropropyl)amino]imidazo[1,2-b]pyridazin-3-yl}-2-methylbenzamide]	49	0.7	–

The remaining compounds from weak to strong by IC50 (human kinase Mps-1), led by results:

Fmax (maximal oral bioavailability) (rat hepatocytes) [%]	IC50 (human kinase Mps-1) [nM]	Structure (SMILES)	further results
67	0.6	Cc1cc(-c2cnc3c(NCCC(F)(F)F)cc(C(=O)c4cc(F)ccc4F)nn23)ccc1C(=O)NC1CC1 [Compound A12, N-Cyclopropyl-4-{6-(2,5-difluorobenzoyl)-8-[(3,3,3-trifluoropropyl)amino]imidazo[1,2-b]pyridazin-3-yl}-2-methylbenzamide]	–
64	0.6	COc1ccc(C(F)(F)c2cc(NCCC(F)(F)F)c3ncc(-c4ccc(C(=O)NC5CC5)c(C)c4)n3n2)cc1F [Compound A2, N-Cyclopropyl-4-{6-[difluoro(3-fluoro-4-methoxyphenyl)methyl]-8-[(3,3,3-trifluoropropyl)amino]imidazo[1,2-b]pyridazin-3-yl}-2-methylbenzamide]	–
53	0.4	C=C(c1cc(NCCC(F)(F)F)c2ncc(-c3ccc(C(=O)NC4CC4)c(C)c3)n2n1)c1cccc(F)c1F [Compound A15, N-Cyclopropyl-4-{6-[1-(2,3-difluorophenyl)vinyl]-8-[(3,3,3-trifluoropropyl)amino]imidazo[1,2-b]pyridazin-3-yl}-2-methylbenzamide]	–
28	0.4	C=C(c1cc(NCCC(F)(F)F)c2ncc(-c3ccc(C(=O)NC4CC4)c(C)c3)n2n1)c1cc(F)ccc1O [Compound A22, N-cyclopropyl-4-{6-[1-(5-fluoro-2-hydroxyphenyl)ethenyl]-8-[(3,3,3-trifluoropropyl)amino]imidazo[1,2-b]pyridazin-3-yl}-2-methylbenzamide]	–
45	0.3	Cc1cc(-c2cnc3c(NCCC(F)(F)F)cc(C(O)c4cc(F)ccc4F)nn23)ccc1C(=O)NC1CC1 (racemic) [Compound A11, (RS)—N-Cyclopropyl-4-{6-[(2,5-difluorophenyl)(hydroxy)methyl]-8-[(3,3,3-trifluoropropyl)amino]imidazo[1,2-b]pyridazin-3-yl}-2-methylbenzamide]	–
48	0.3	C=C(c1cccc(F)c1)c1cc(NCCC(F)(F)F)c2ncc(-c3ccc(C(=O)NC4CC4)c(C)c3)n2n1 [Compound A24, N-cyclopropyl-4-{6-[1-(3-fluorophenyl)ethenyl]-8-[(3,3,3-trifluoropropyl)amino]imidazo[1,2-b]pyridazin-3-yl}-2-methylbenzamide]	–
18	0.2	Cc1cc(-c2cnc3c(NCCC(F)(F)F)cc(C(O)c4cccc(F)c4O)nn23)ccc1C(=O)NC1CC1 (racemic) [Compound A3, (RS)—N-Cyclopropyl-4-{6-[(3-fluoro-2-hydroxyphenyl)(hydroxy)methyl]-8-[(3,3,3-trifluoropropyl)amino]imidazo[1,2-b]pyridazin-3-yl}-2-methylbenzamide]	–
